Results on 34 compounds are retold here after patent US5807889A, “Aminomethylindans, -benzofuranes and -benzothiophenes” (H. Lundbeck A/S, priority 1992, dated 1998).

The first assay addresses T1, 5-HT1A receptors (Rattus norvegicus, UniProt P19327).
T1 sequence (P19327 1-422): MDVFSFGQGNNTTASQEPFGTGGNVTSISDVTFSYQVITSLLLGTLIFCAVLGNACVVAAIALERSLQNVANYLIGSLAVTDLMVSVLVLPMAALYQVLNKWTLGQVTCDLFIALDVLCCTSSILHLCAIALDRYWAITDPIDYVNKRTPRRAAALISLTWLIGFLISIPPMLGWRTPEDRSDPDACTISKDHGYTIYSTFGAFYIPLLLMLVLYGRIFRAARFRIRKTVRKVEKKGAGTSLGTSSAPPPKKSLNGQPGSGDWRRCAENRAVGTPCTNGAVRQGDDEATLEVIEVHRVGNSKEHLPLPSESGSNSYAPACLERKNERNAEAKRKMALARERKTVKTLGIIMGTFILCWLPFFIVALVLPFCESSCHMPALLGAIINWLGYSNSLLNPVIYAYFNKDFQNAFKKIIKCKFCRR
Description: Inhibition of 3H-8-OH-DPAT binding to serotonin 5-HT1A receptors in rat brain in vitro. Further details: 5-HT1A receptors in membranes from rat brain minus cerebellum; from tissue; host or cells: brain minus cerebellum of male Wistar (Mol:Wist) rats, crude membranes; species or system rat (male Wistar). As to conditions: 3H 8-OH DPAT binding IC50, 1 nM 3H-8-OH-DPAT, rat brain minus cerebellum membranes, 37° C., 15 min.
Description: Male Wistar (Mol:Wist) rats (125-250 g) are sacrificed and the brain is dissected and weighed. The brain tissue minus cerebellum is homogenized (Ultra Turrax, 20 sec) in 10 ml of ice cold 50 nM Tris buffer pH 8.0 (at 25° C.) containing 120 mM NaCl, 4 mM CaCl2 and 4 mM MgCl2. The homogenate is centrifuged at 20,000 g for 10 min at 4° C. The pellet is homogenized in 10 ml of buffer and incubated at 37° C. for 10 min. The homogenate is centrifuged as above and the pellet is homogenized in 100 vol (w/v) ice cold buffer containing 10 μM of pargyline.
Incubation tubes kept on ice in triplicate receive 100 μl of drug solution in water (or water for total binding) and 1000 μl of tissue suspension (final tissue content corresponds to 10 mg original tissue). […] After incubation for 15 min the samples are filtered under vacuum (0-50 mBar) through Whatman GF/F filters (25 mm). The tubes are rinsed with 5 ml ice cold 0.9% NaCl which is then poured on the filters. Thereafter, the filters are washed with 2×5 ml 0.9% NaCl. The filters are placed in counting vials and 4 ml of appropriate scintillation fluid (e.g. Picofluor™ 15) are added. After shaking for 1 h and storage 2 h in the dark the content of radioactivity is determined by liquid scintillation counting. Specific binding is obtained by subtracting the nonspecific binding in the presence of 10 μM of 5-HT.
For determination of the inhibition of binding five concentrations of drugs covering 3 decades are used.
The IC50 -value is determined as the concentration, at which the binding is 50% of the total binding in control samples minus the nonspecific binding in the presence of 10 μM of 5-HT.
As usually defined, the IC50 is the midpoint of a concentration-inhibition curve. `CCCN(CCC)CC1CCc2ccc(NC(=O)NC3CCCC3)cc21` (stereo not shown) [Compound 4e, 6-(3-cyclopentyl-1-ureido)-1-(N,N-dipropylaminomethyl)indan] had an IC50 of 170 nM.

`CCCN(CCC)CC1CCc2ccc(NC(C)=O)c(Cl)c21` (stereo not shown) [Compound 2f, 6-Acetylamino-7-chloro-1-(N,N-dipropylaminomethyl)indan] displayed an IC50 of 340 nM.

Compound `O=CNc1ccc2c(c1)C(CN1CCCC1)CC2` (stereo not shown) [Compound 1d, 6-Formylamino-1-(1-pyrrolidinomethyl)indan] came in with an IC50 of 19 nM.

`CCCN(CCC)CC1CCc2ccc(NC(=O)Nc3ccccc3)cc21` (stereo not shown) [Compound 4a, 1-(N,N-dipropylaminomethyl)-6-(3-phenyl-1-ureido)indan] came in with an IC50 of 80 nM.

On to `CCCN(CCC)CC1CCc2ccc(NC(=O)N(C)C)cc21` (single isomer, unassigned; (+)) [Compound 10d, (+)-6-(3,3-dimethyl-1-ureido)-1-(N,N-dipropylaminomethyl)indan], for which the IC50 worked out at 22 nM.

Take `CC(=O)Nc1ccc2c(c1)C(CN(C)CCCCN1CCN(c3ccc(F)cc3)C1=O)CC2` (stereo not shown) [Compound 13h, 6-Acetylamino-1-[N-[4-[3-(4-fluorophenyl)-2-imidazolidinon-1-yl]-1-butyl]-N-methylaminomethyl]indan]: the IC50 was 4.8 nM.

Compound `CN(C)CC1CCc2ccc(NC=O)cc21` (single isomer, unassigned; (-)) [Compound 10g, (-)-1-(N,N-dimethylaminomethyl)-6-formylaminoindan] yielded an IC50 of 48 nM.

Take `CC(=O)Nc1ccc2c(c1)C(CN1CCCCC1)CC2` (single isomer, unassigned; (+)) [Compound 8f, (+)-6-acetylamino-1-(1-piperidinomethyl)indan]: the IC50 came to 15 nM.

`CC(=O)Nc1ccc2c(c1)C(CN(C)CCCN1CCN(C3CCCCC3)C1=O)CC2` (stereo not shown) [Compound 13i, 6-Acetylamino-1-[N-[3-(3-cyclohexyl-2-imidazolidinon-1-yl)-1-propyl]-N-methylaminomethyl]indan] displayed an IC50 of 2.2 nM.

`CCCN(CCC)CC1CCc2ccc(NC(N)=O)cc21` (stereo not shown) [Compound 3a, 1-(N,N-dipropylaminomethyl)-6-ureido-indan] had an IC50 of 0.56 nM.

As to `CCCN(CCC)CC1CCc2cc(Cl)c(NC(C)=O)cc21` (single isomer, unassigned; (+)) [Compound 11c, (+)-6-Acetylamino-5-chloro-1-(N,N-dipropylaminomethyl)indan], the IC50 stood at 14 nM.

In turn, `CC(=O)Nc1ccc2c(c1)C(CN(C)CCCCN1CCNC1=O)CC2` (stereo not shown) [Compound 13k, 6-Acetylamino-1-[N-[4-(2-imidazolidinon-1-yl)-1-butyl]-N-methylaminomethyl]indan] yielded an IC50 of 790 nM.

`CC(=O)Nc1ccc2c(c1)C(CN(C)CCCCN1CCN(C3CCCCC3)C1=O)CC2` (stereo not shown) [Compound 13f, 6-Acetylamino-1-[N-[4-(3-cyclohexyl-2-imidazolidinon-1-yl)-1-butyl]-N-methylaminomethyl]indan] returned an IC50 of 5.1 nM.

With `CCCN(CCC)CC1CCc2ccc(NC(=O)NC)cc21` (stereo not shown) [Compound 4b, 1-(N,N-dipropylaminomethyl)-6-(3-methyl-1-ureido)indan], the IC50 is 6.6 nM.

`CC(=O)Nc1ccc2c(c1)C(CN1CCCCC1)CS2` (stereo not shown) [Compound 2i, 5-acetylamino-3-(1-piperidinomethyl)-2,3-dihydrobenzothiophene] returned an IC50 of 6.3 nM.

`CCCN(CCC)CC1CCc2ccc(NC(=O)Nc3ccc(F)cc3)cc21` (single isomer, unassigned; (+)) [Compound 10f, (+)-6-[3-(4-fluorophenyl)-1-ureido]-1-(N,N-dipropylaminomethyl)indan] returned an IC50 of 63 nM.

On to `CCCN(CCC)CC1CCc2ccc(NC(C)=O)cc21` (single isomer, unassigned; (-)) [Compound 8a, (-)-6-Acetylamino-1-(N,N-dipropylaminomethyl)indan], for which the 50% inhibitory concentration (IC50) stood at 0.64 nM.

`CCCN(CCC)CC1CCc2ccc(NC(=O)N(C)C)cc21` (single isomer, unassigned; (-)) [Compound 10c, (-)-6-(3,3-dimethyl-1-ureido)-1-(N, N-dipropylaminomethyl)indan] yielded an IC50 of 8.1 nM.

`CC(=O)Nc1ccc2c(c1)C(CN(C)CCN1CCN(c3ccc(F)cc3)C1=O)CC2` (stereo not shown) [Compound 13e, 6-Acetylamino-1-[N-[2-[3-(4-fluorophenyl)-2-imidazolidinon-1-yl]ethyl]-N-methyl-aminomethyl]indan]: the half-inhibitory concentration (IC50) stood at 27 nM.

Take `CCCN(CCC)CC1CCc2ccc(NCc3ccc(F)cc3)cc21` (stereo not shown) [Compound 6a, 1-(N,N-dipropylaminomethyl)-6-(4-fluorobenzylamino)indan]: the IC50 was found to be 20 nM.

`CC(=O)Nc1ccc2c(c1)C(CN(C)CCCN1CCN(c3ccccc3)C1=O)CC2` (stereo not shown) [Compound 13g, 6-Acetylamino-1-[N-methyl-N-[3-(3-phenyl-2-imidazolidinon-1-yl)-1-propyl]aminomethyl]indan] had an IC50 of 1 nM.

Consider `CNCC1CCc2ccc(NC(C)=O)cc21` (stereo not shown) [Compound 12a, 6-Acetylamino-1-(N-methylaminomethyl)indan], for which the IC50 is 25 nM.

For `CC(=O)Nc1ccc2c(c1)C(CN(C)CCCCCCN1CCN(C3CCCC3)C1=O)CC2` (stereo not shown) [Compound 13j, 6-Acetylamino-1-[N-[6-(3-cyclopentyl-2-imidazolidinon-1-yl)-1-hexyl]-N-methylaminomethyl]indan], the IC50 is 3.2 nM.

With `CCCN(CCC)CC1CCc2ccc(NC=O)cc21` (single isomer, unassigned; (-)) [Compound 10a, (-)-1-(N,N-dipropylaminomethyl)-6-formylaminoindan], the IC50 was found to be 1 nM.

Compound `CCCN(CCC)CC1CCc2cc(Br)c(NC(C)=O)cc21` (stereo not shown) [Compound 11d, 6-Acetylamino-5-bromo-1-(N,N-dipropylaminomethyl)indan] returned an IC50 of 120 nM.

As for `CC(=O)Nc1ccc2c(c1)C(CN1CCCCC1)CC2` (single isomer, unassigned; (-)) [Compound 8e, (-)-6-acetylamino-1-(1-piperidinomethyl)indan], the IC50 was found to be 6.7 nM.

Turning to `CN(C)CC1CCc2ccc(NC=O)cc21` (single isomer, unassigned; (+)) [Compound 10h, (+)-1-(N,N-dimethylaminomethyl)-6-formylaminoindan], the IC50 came out at 220 nM.

`CCCN(CCC)CC1CCc2ccc(NS(C)(=O)=O)c(Cl)c21` (stereo not shown) [Compound 2h, 7-chloro-1-(N,N-dipropylaminomethyl)-6-(methylsulphonylamino)indan] returned an IC50 of 2000 nM.

`CCCCCCCCCNC(=O)Nc1ccc2c(c1)C(CN(CCC)CCC)CC2` (stereo not shown) [Compound 4d, 1-(N,N-dipropylaminomethyl)-6-(3-nonyl-1-ureido)indan] had an IC50 of 170 nM.

The compound `CCCN(CCC)CC1CCc2ccc(NC(=O)Nc3ccc(F)cc3)cc21` (single isomer, unassigned; (-)) [Compound 10e, (-)-6-[3-(4-fluorophenyl)-1-ureido]-1-(N,N-dipropylaminomethyl)indan] showed an IC50 of 160 nM.

As to `CC(=O)Nc1ccc2c(c1)C(CN1CCCCC1)CC2` (stereo not shown) [Compound 5c, 6-acetylamino-1-(1-piperidinomethyl)indan], the IC50 was determined as 6.5 nM.

In turn, `CCCN(CCC)CC1CCc2ccc(NC=O)cc21` (single isomer, unassigned; (+)) [Compound 10b, (+)-1-(N,N-dipropylaminomethyl)-6-formylaminoindan] displayed an IC50 of 4.2 nM.

Staying with this assay, now noted: read-out: 3H 8-OH DPAT binding IC50; 1 nM 3H-8-OH-DPAT, rat brain minus cerebellum membranes, 37° C., 15 min.
As for “3-[N-(2-phenylethyl)-N-propylaminomethyl]-5-formylaminomethyl-2,3-dihydrobenzothiophene [Compound 5b]”, the IC50 came out at 60 nM.

As for `CCCN(CCC)CC1CCc2ccc(NC(C)=O)cc21` (single isomer, unassigned; (+)) [Compound 8b, (+)-6-Acetylamino-1-(N,N-dipropylaminomethyl)indan], the IC50 worked out at 0.64 nM.
